# Results taken from the supplement of paper PMC10307832.
# Columns and labels:
# Assay in all cases: relative viability (nuclei count vs DMSO), 5 days (fraction); higher = more cells survive
# NCI-H1395 = test system: NCI-H1395
# Summary of the method: (§1)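 One day after seeding in 1536-well plates, lung cancer cell lines were dosed by pin tool. Dosing was either single-drug or a fixed anchor-drug dose plus five library-drug doses (not always all listed) in √10 steps. After 5 days, nuclei were stained in one fix-and-stain step and counted on 4× images, and relative viability is the nuclei count of treated wells over that of vehicle wells, given as the median of duplicate plates.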
# NCI-H1793 = test system: NCI-H1793
# Summary of the method: as §1
# BEN = test system: BEN
# Summary of the method: as §1
# NCI-H647 = test system: NCI-H647
# Summary of the method: as §1
# NCI-H727 = test system: NCI-H727
# Summary of the method: as §1
# NCI-H1437 = test system: NCI-H1437
# Summary of the method: as §1
# LXF-289 = test system: LXF-289
# Summary of the method: as §1
# LCLC-97TM1 = test system: LCLC-97TM1
# Summary of the method: as §1
# NCI-H1792 = test system: NCI-H1792
# Summary of the method: as §1
# RERF-LC-KJ = test system: RERF-LC-KJ
# Summary of the method: as §1
# NCI-H322M = test system: NCI-H322M
# Summary of the method: as §1
# HCC-827 = test system: HCC-827
# Summary of the method: as §1
# NCI-H2405 = test system: NCI-H2405
# Summary of the method: as §1
# NCI-H1650 = test system: NCI-H1650
# Summary of the method: as §1
# 201T = test system: 201T
# Summary of the method: as §1
# NCI-H2087 = test system: NCI-H2087
# Summary of the method: as §1
# SK-LU-1 = test system: SK-LU-1
# Summary of the method: as §1
# LCLC-103H = test system: LCLC-103H
# Summary of the method: as §1
# NCI-H1944 = test system: NCI-H1944
# Summary of the method: as §1
# NCI-H3122 = test system: NCI-H3122
# Summary of the method: as §1
# NCI-H2228 = test system: NCI-H2228
# Summary of the method: as §1
# CAL-12T = test system: CAL-12T
# Summary of the method: as §1
compound,measurement,setting,value
COc1nc(C)cnc1NS(=O)(=O)c1cccnc1-c1ccc(-c2nnco2)cc1 [Zibotentan] + Nc1ncn([C@H]2C[C@H](O)[C@@H](CO)O2)c(=O)n1 [Decitabine] (partner 2 µM),relative viability,NCI-H1395; first compound 0.08 µM,0.736
same,relative viability,NCI-H1395; first compound 0.253 µM,0.68
same,relative viability,NCI-H1395; first compound 0.8 µM,0.708
same,relative viability,NCI-H1395; first compound 2.53 µM,0.674
same,relative viability,NCI-H1793; first compound 0.08 µM,0.503
same,relative viability,NCI-H1793; first compound 0.253 µM,0.471
same,relative viability,NCI-H1793; first compound 0.8 µM,0.528
same,relative viability,NCI-H1793; first compound 2.53 µM,0.635
same,relative viability,BEN; first compound 0.08 µM,0.784
same,relative viability,BEN; first compound 0.253 µM,0.691
same,relative viability,BEN; first compound 0.8 µM,0.734
same,relative viability,BEN; first compound 2.53 µM,0.646
same,relative viability,NCI-H647; first compound 0.08 µM,0.438
same,relative viability,NCI-H647; first compound 0.253 µM,0.341
same,relative viability,NCI-H647; first compound 0.8 µM,0.448
same,relative viability,NCI-H647; first compound 2.53 µM,0.509
same,relative viability,NCI-H727; first compound 0.08 µM,0.942
same,relative viability,NCI-H727; first compound 0.253 µM,0.826
same,relative viability,NCI-H727; first compound 0.8 µM,0.908
same,relative viability,NCI-H727; first compound 2.53 µM,0.874
same,relative viability,NCI-H1437; first compound 0.08 µM,0.534
same,relative viability,NCI-H1437; first compound 0.253 µM,0.545
same,relative viability,NCI-H1437; first compound 0.8 µM,0.564
same,relative viability,NCI-H1437; first compound 2.53 µM,0.556
same,relative viability,LXF-289; first compound 0.08 µM,0.357
same,relative viability,LXF-289; first compound 0.253 µM,0.346
same,relative viability,LXF-289; first compound 0.8 µM,0.409
same,relative viability,LXF-289; first compound 2.53 µM,0.367
same,relative viability,LCLC-97TM1; first compound 0.08 µM,0.26
same,relative viability,LCLC-97TM1; first compound 0.253 µM,0.266
same,relative viability,LCLC-97TM1; first compound 0.8 µM,0.229
same,relative viability,LCLC-97TM1; first compound 2.53 µM,0.246
same,relative viability,NCI-H1792; first compound 0.08 µM,0.491
same,relative viability,NCI-H1792; first compound 0.253 µM,0.549
same,relative viability,NCI-H1792; first compound 0.8 µM,0.547
same,relative viability,NCI-H1792; first compound 2.53 µM,0.575
same,relative viability,RERF-LC-KJ; first compound 0.08 µM,0.699
same,relative viability,RERF-LC-KJ; first compound 0.253 µM,0.558
same,relative viability,RERF-LC-KJ; first compound 0.8 µM,0.708
same,relative viability,RERF-LC-KJ; first compound 2.53 µM,0.634
same,relative viability,NCI-H322M; first compound 0.08 µM,0.74
same,relative viability,NCI-H322M; first compound 0.253 µM,0.679
same,relative viability,NCI-H322M; first compound 0.8 µM,0.733
same,relative viability,NCI-H322M; first compound 2.53 µM,0.856
same,relative viability,HCC-827; first compound 0.08 µM,0.341
same,relative viability,HCC-827; first compound 0.253 µM,0.333
same,relative viability,HCC-827; first compound 0.8 µM,0.341
same,relative viability,HCC-827; first compound 2.53 µM,0.343
same,relative viability,NCI-H2405; first compound 0.08 µM,0.764
same,relative viability,NCI-H2405; first compound 0.253 µM,0.684
same,relative viability,NCI-H2405; first compound 0.8 µM,0.767
same,relative viability,NCI-H2405; first compound 2.53 µM,0.73
same,relative viability,NCI-H1650; first compound 0.08 µM,0.393
same,relative viability,NCI-H1650; first compound 0.8 µM,0.626
same,relative viability,NCI-H1650; first compound 2.53 µM,0.488
same,relative viability,201T; first compound 0.08 µM,0.841
same,relative viability,201T; first compound 0.253 µM,0.865
same,relative viability,201T; first compound 0.8 µM,0.855
same,relative viability,201T; first compound 2.53 µM,0.919
same,relative viability,NCI-H2087; first compound 0.08 µM,0.342
same,relative viability,NCI-H2087; first compound 0.253 µM,0.287
same,relative viability,NCI-H2087; first compound 0.8 µM,0.325
same,relative viability,NCI-H2087; first compound 2.53 µM,0.331
same,relative viability,SK-LU-1; first compound 0.08 µM,0.805
same,relative viability,SK-LU-1; first compound 0.253 µM,0.688
same,relative viability,SK-LU-1; first compound 0.8 µM,0.722
same,relative viability,SK-LU-1; first compound 2.53 µM,0.642
same,relative viability,LCLC-103H; first compound 0.08 µM,0.718
same,relative viability,LCLC-103H; first compound 0.253 µM,0.727
same,relative viability,LCLC-103H; first compound 0.8 µM,0.738
same,relative viability,LCLC-103H; first compound 2.53 µM,0.709
same,relative viability,NCI-H1944; first compound 0.08 µM,0.433
same,relative viability,NCI-H1944; first compound 0.253 µM,0.431
same,relative viability,NCI-H1944; first compound 0.8 µM,0.425
same,relative viability,NCI-H1944; first compound 2.53 µM,0.426
same,relative viability,NCI-H3122; first compound 0.08 µM,0.472
same,relative viability,NCI-H3122; first compound 0.253 µM,0.379
same,relative viability,NCI-H3122; first compound 0.8 µM,0.357
same,relative viability,NCI-H3122; first compound 2.53 µM,0.377
COc1nc(C)cnc1NS(=O)(=O)c1cccnc1-c1ccc(-c2nnco2)cc1 [Zibotentan] + Nc1nc2[nH]cc(CCc3ccc(C(=O)N[C@@H](CCC(=O)O)C(=O)O)cc3)c2c(=O)[nH]1 [Pemetrexed] (partner 0.2 µM),relative viability,NCI-H2228; first compound 0.08 µM,0.323
same,relative viability,NCI-H2228; first compound 0.253 µM,0.33
same,relative viability,NCI-H2228; first compound 0.8 µM,0.291
same,relative viability,NCI-H2228; first compound 2.53 µM,0.346
same,relative viability,NCI-H1395; first compound 0.08 µM,1.01
same,relative viability,NCI-H1395; first compound 0.253 µM,0.801
same,relative viability,NCI-H1395; first compound 0.8 µM,0.81
same,relative viability,NCI-H1395; first compound 2.53 µM,0.901
same,relative viability,NCI-H1793; first compound 0.08 µM,0.942
same,relative viability,NCI-H1793; first compound 0.253 µM,0.785
same,relative viability,NCI-H1793; first compound 0.8 µM,0.799
same,relative viability,NCI-H1793; first compound 2.53 µM,1.08
same,relative viability,BEN; first compound 0.08 µM,0.781
same,relative viability,BEN; first compound 0.253 µM,0.707
same,relative viability,BEN; first compound 0.8 µM,0.774
same,relative viability,BEN; first compound 2.53 µM,0.722
same,relative viability,NCI-H647; first compound 0.08 µM,0.165
same,relative viability,NCI-H647; first compound 0.253 µM,0.171
same,relative viability,NCI-H647; first compound 0.8 µM,0.181
same,relative viability,NCI-H647; first compound 2.53 µM,0.201
same,relative viability,NCI-H1437; first compound 0.08 µM,0.35
same,relative viability,NCI-H1437; first compound 0.253 µM,0.306
same,relative viability,NCI-H1437; first compound 0.8 µM,0.281
same,relative viability,NCI-H1437; first compound 2.53 µM,0.32
same,relative viability,LXF-289; first compound 0.08 µM,0.88
same,relative viability,LXF-289; first compound 0.253 µM,0.936
same,relative viability,LXF-289; first compound 0.8 µM,0.854
same,relative viability,LXF-289; first compound 2.53 µM,0.916
same,relative viability,LCLC-97TM1; first compound 0.08 µM,0.192
same,relative viability,LCLC-97TM1; first compound 0.253 µM,0.181
same,relative viability,LCLC-97TM1; first compound 0.8 µM,0.154
same,relative viability,LCLC-97TM1; first compound 2.53 µM,0.175
same,relative viability,NCI-H1792; first compound 0.08 µM,0.911
same,relative viability,NCI-H1792; first compound 0.253 µM,0.662
same,relative viability,NCI-H1792; first compound 0.8 µM,0.813
same,relative viability,NCI-H1792; first compound 2.53 µM,1.14
same,relative viability,RERF-LC-KJ; first compound 0.08 µM,0.5
same,relative viability,RERF-LC-KJ; first compound 0.253 µM,0.464
same,relative viability,RERF-LC-KJ; first compound 0.8 µM,0.438
same,relative viability,RERF-LC-KJ; first compound 2.53 µM,0.481
same,relative viability,NCI-H322M; first compound 0.08 µM,0.661
same,relative viability,NCI-H322M; first compound 0.253 µM,0.553
same,relative viability,NCI-H322M; first compound 0.8 µM,0.526
same,relative viability,NCI-H322M; first compound 2.53 µM,0.65
same,relative viability,HCC-827; first compound 0.08 µM,0.262
same,relative viability,HCC-827; first compound 0.253 µM,0.272
same,relative viability,HCC-827; first compound 0.8 µM,0.241
same,relative viability,HCC-827; first compound 2.53 µM,0.294
same,relative viability,NCI-H2405; first compound 0.08 µM,1.15
same,relative viability,NCI-H2405; first compound 0.253 µM,0.975
same,relative viability,NCI-H2405; first compound 0.8 µM,1.06
same,relative viability,NCI-H2405; first compound 2.53 µM,1.21
same,relative viability,NCI-H1650; first compound 0.08 µM,0.364
same,relative viability,NCI-H1650; first compound 0.8 µM,0.387
same,relative viability,NCI-H1650; first compound 2.53 µM,0.402
same,relative viability,201T; first compound 0.08 µM,0.327
same,relative viability,201T; first compound 0.253 µM,0.355
same,relative viability,201T; first compound 0.8 µM,0.247
same,relative viability,201T; first compound 2.53 µM,0.323
same,relative viability,NCI-H2087; first compound 0.08 µM,0.677
same,relative viability,NCI-H2087; first compound 0.253 µM,0.666
same,relative viability,NCI-H2087; first compound 0.8 µM,0.536
same,relative viability,NCI-H2087; first compound 2.53 µM,0.746
same,relative viability,SK-LU-1; first compound 0.08 µM,0.95
same,relative viability,SK-LU-1; first compound 0.253 µM,0.705
same,relative viability,SK-LU-1; first compound 0.8 µM,1.01
same,relative viability,SK-LU-1; first compound 2.53 µM,0.99
same,relative viability,LCLC-103H; first compound 0.08 µM,0.428
same,relative viability,LCLC-103H; first compound 0.253 µM,0.471
same,relative viability,LCLC-103H; first compound 0.8 µM,0.429
same,relative viability,LCLC-103H; first compound 2.53 µM,0.533
same,relative viability,NCI-H1944; first compound 0.08 µM,0.769
same,relative viability,NCI-H1944; first compound 0.253 µM,0.584
same,relative viability,NCI-H1944; first compound 0.8 µM,0.61
same,relative viability,NCI-H1944; first compound 2.53 µM,0.732
same,relative viability,NCI-H3122; first compound 0.08 µM,0.204
same,relative viability,NCI-H3122; first compound 0.253 µM,0.199
same,relative viability,NCI-H3122; first compound 0.8 µM,0.308
same,relative viability,NCI-H3122; first compound 2.53 µM,0.219
same,relative viability,CAL-12T; first compound 0.08 µM,1.28
same,relative viability,CAL-12T; first compound 0.253 µM,1.06
same,relative viability,CAL-12T; first compound 0.8 µM,1.23
same,relative viability,CAL-12T; first compound 2.53 µM,1.16
